Assay results reported in ChEMBL document CHEMBL1201862, “PubChem BioAssay data set” (2004).
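Step 1: Grow cells in 96-well plates. Step 2: Expose to compound for 48 hours at 5 concentrations. Step 3: Interpolate endpoints linearly; if unreached, use highest concentration. Abbreviation: GI50, concentration required for 50% inhibition of growth.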 Activity calls are given as the source filed them. Cut-off read from the data, not from the text of the source: active = GI50 up to about 1.1 µM and inactive = higher.

Tests used:
Test in all cases: NCI tumour cell line growth inhibition, 48 h
[1] = tested on: MDA-MB-231
[2] = tested on: EKVX
[3] = tested on: OVCAR-8
[4] = tested on: SK-MEL-5
[5] = tested on: NCI-H460
[6] = tested on: SW-620
[7] = tested on: A549
[8] = tested on: M14
[9] = tested on: KM12
[10] = tested on: SNB-19
[11] = tested on: SK-OV-3
[12] = tested on: UACC-257
[13] = tested on: NCI-H522
[14] = tested on: NCI-H23
[15] = tested on: PC-3
[16] = tested on: Hs-578T
[17] = tested on: 786-0
[18] = tested on: COLO 205
[19] = tested on: UACC-62
[20] = tested on: MOLT-4

SMILES	GI50 [1]	GI50 [2]	GI50 [3]	GI50 [4]	GI50 [5]	GI50 [6]	GI50 [7]	GI50 [8]	GI50 [9]	GI50 [10]	GI50 [11]	GI50 [12]	GI50 [13]	GI50 [14]	GI50 [15]	GI50 [16]	GI50 [17]	GI50 [18]	GI50 [19]	GI50 [20]
Oc1ccc2ccccc2c1OCc1nnc(CCCCCCCCc2nnc(COc3c(O)ccc4ccccc34)n2Nc2ccccc2)n1Nc1ccccc1	15.3 µM (inactive)	15.4 µM (inactive)	20.9 µM (inactive)	0.536 µM (active)	2.7 µM (inactive)	18 µM (inactive)	10.5 µM (inactive)	2.56 µM (inactive)	12.5 µM (inactive)	20.7 µM (inactive)	16.5 µM (inactive)	6.38 µM (inactive)	11.1 µM (inactive)	9.29 µM (inactive)	2.68 µM (inactive)	18.2 µM (inactive)	21.5 µM (inactive)	0.399 µM (active)	0.855 µM (active)	
N=C(N)NS(=O)(=O)c1ccc(NC(=O)c2cccc3c(NNc4ccc(C(=O)O)cc4)c4ccccc4nc23)cc1	61 µM (inactive)	26.6 µM (inactive)	> 100 µM (inactive)	99.1 µM (inactive)	67.3 µM (inactive)	> 100 µM (inactive)	> 100 µM (inactive)	> 100 µM (inactive)	45.2 µM (inactive)	57.8 µM (inactive)	47.2 µM (inactive)	> 100 µM (inactive)	51.1 µM (inactive)	> 100 µM (inactive)	46.3 µM (inactive)	> 100 µM (inactive)	> 100 µM (inactive)	65 µM (inactive)	70.1 µM (inactive)	44.9 µM (inactive)
CCCCC(=O)NC1(c2cc3ccccc3s2)CCCCC1	> 100 µM (inactive)	> 100 µM (inactive)	80.4 µM (inactive)	> 100 µM (inactive)	> 100 µM (inactive)	> 100 µM (inactive)	> 100 µM (inactive)	> 100 µM (inactive)	> 100 µM (inactive)	> 100 µM (inactive)	> 100 µM (inactive)	> 100 µM (inactive)	> 100 µM (inactive)	> 100 µM (inactive)	> 100 µM (inactive)	> 100 µM (inactive)	> 100 µM (inactive)	> 100 µM (inactive)	62.1 µM (inactive)	
O=C1c2sccc2C(=O)c2c(CO)csc21	17.2 µM (inactive)	6.97 µM (inactive)	3.66 µM (inactive)	0.83 µM (active)	2.25 µM (inactive)	6.98 µM (inactive)	0.695 µM (active)	2.21 µM (inactive)	5.02 µM (inactive)	5.56 µM (inactive)	11.4 µM (inactive)	2.15 µM (inactive)	1.92 µM (inactive)	2.07 µM (inactive)	3.32 µM (inactive)	4.17 µM (inactive)	3.94 µM (inactive)	2.69 µM (inactive)	2.52 µM (inactive)	4.89 µM (inactive)
CC1(C)OCC(C2OC(C)(C)OC2[C@H]2O[C@@]3(O)[C@H]4[C@H](C=CC[C@@H]42)[C@@H](OCc2ccccc2)[C@H](OCc2ccccc2)[C@H]3OCc2ccccc2)O1 (stereo partly specified)	94.8 µM (inactive)	33.7 µM (inactive)	22.7 µM (inactive)	43.2 µM (inactive)	17.9 µM (inactive)	27.8 µM (inactive)	24.8 µM (inactive)	59.3 µM (inactive)	47.4 µM (inactive)	63.7 µM (inactive)	> 100 µM (inactive)	18.8 µM (inactive)	37.1 µM (inactive)	28.4 µM (inactive)	31 µM (inactive)	> 100 µM (inactive)	35 µM (inactive)	> 100 µM (inactive)	19.3 µM (inactive)	12.5 µM (inactive)
N=c1oc2ccccc2cc1-c1nc2ccccc2[nH]1	22.4 µM (inactive)	18.2 µM (inactive)	71.6 µM (inactive)	20.8 µM (inactive)	49.1 µM (inactive)	36.6 µM (inactive)	74.1 µM (inactive)	70.8 µM (inactive)	30.8 µM (inactive)	98.9 µM (inactive)	13.6 µM (inactive)	> 100 µM (inactive)	1.89 µM (inactive)		78 µM (inactive)	41 µM (inactive)	15.4 µM (inactive)	51.2 µM (inactive)	41.4 µM (inactive)	10.1 µM (inactive)
C=CCOC(=O)NC1C(OC(C)[C@@H](NC(=O)OCc2ccccc2)C(=O)OC(C)(C)C)OC(COC(C)=O)C(OC(C)=O)C1OC(C)=O (stereo partly specified)	15.1 µM (inactive)	> 100 µM (inactive)	65 µM (inactive)	> 100 µM (inactive)	> 100 µM (inactive)	> 100 µM (inactive)	> 100 µM (inactive)	46.1 µM (inactive)	> 100 µM (inactive)	> 100 µM (inactive)	> 100 µM (inactive)	> 100 µM (inactive)	63.8 µM (inactive)	> 100 µM (inactive)	47 µM (inactive)	72.4 µM (inactive)	> 100 µM (inactive)	> 100 µM (inactive)	> 100 µM (inactive)	25.8 µM (inactive)
CC(=O)NC1=C(NCCCl)C(=O)c2ccccc2C1=O	36.7 µM (inactive)	> 100 µM (inactive)	20 µM (inactive)	16.9 µM (inactive)	32.1 µM (inactive)	25.4 µM (inactive)	35.4 µM (inactive)	13 µM (inactive)	31.8 µM (inactive)	58.3 µM (inactive)	59.2 µM (inactive)	15 µM (inactive)	20.5 µM (inactive)	26.1 µM (inactive)	22.3 µM (inactive)	43.5 µM (inactive)	50.5 µM (inactive)	28.4 µM (inactive)	20 µM (inactive)	25.1 µM (inactive)
CCOC(=O)C(C#N)C1=CC(=O)C(=O)c2ccc(OC)cc21 (stereo unspecified)	14.6 µM (inactive)	22.7 µM (inactive)	20 µM (inactive)	15.2 µM (inactive)	24.2 µM (inactive)	18.4 µM (inactive)	19.7 µM (inactive)	15.6 µM (inactive)	20 µM (inactive)	22.1 µM (inactive)	18.4 µM (inactive)	17 µM (inactive)	3.89 µM (inactive)	15.5 µM (inactive)	28.5 µM (inactive)	18.1 µM (inactive)	25.1 µM (inactive)	17 µM (inactive)	15.2 µM (inactive)	48.5 µM (inactive)
O=C(/C=C/C=C/c1ccccc1)c1ccccc1	21.5 µM (inactive)	15.3 µM (inactive)	13.4 µM (inactive)	16.3 µM (inactive)	21.3 µM (inactive)	16.7 µM (inactive)	18.1 µM (inactive)	18 µM (inactive)	14.3 µM (inactive)	17.9 µM (inactive)	22.2 µM (inactive)	16.9 µM (inactive)	4.66 µM (inactive)		19.1 µM (inactive)	20 µM (inactive)	14.3 µM (inactive)	17.7 µM (inactive)	17.4 µM (inactive)	14.6 µM (inactive)
